Read-outs that look alike come from different tables or passages of the source.
Tests used:
Type in all cases: cell-based
[1] = Hoechst 33342 nuclear staining (48 h read-out)
Summary of the method: (§1)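 Adherent cells pre-spread 24 h before dosing, suspension cells dosed at seeding; compounds at 0.001 μM-10 μM final, 48 h at culture conditions. Hoechst 33342 (2-5 μg/ml) added for 30 min, then fluorescence microscopy scoring of apoptotic nuclear fraction and apoptosis-specific morphology, reported as scores A-D.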

tumor cells [2] = assay: Hoechst 33342 nuclear staining (48 h read-out)
Summary of the method: as §1

[3] = MTS proliferation assay (72 h read-out); settings: MRC5 cells
Summary of the method: (§2)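 Tumour cells (1.5×10^3–10^4 per well) were seeded 24 h before compound addition, then exposed to 0.001–10 μM final compound for 72 h under culture conditions. MTS reagent was added for a further 3 h, absorbance was read at 492 nm, and results were binned into scores A–D.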

tumor cells [4] = assay: MTS proliferation assay (72 h read-out)
Summary of the method: as §2

[5] = Mitochondrial membrane potential, JC-1 (read-out 48 h); settings: PBL, JC-1, 48 h
Summary of the method: (§3)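 Tumor cells were treated with test compounds (adherent cells after 24 h of attachment, suspension cells immediately), medium holding up to 5% DMSO. After 48 h, JC-1 (2-5 μg/ml in added medium) was applied for 30 min. Fluorescence microscopy (FITC/TRITC filters) scored the fraction of cells with dissipated mitochondrial membrane potential as categories A-D.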

tumor cells [6] = assay: as above; settings: JC-1, 48 h
Summary of the method: as §3

[7] = MRC5 cells, read-out: Hoechst 33342 nuclear staining EC50, MRC5
[8] = PBL, read-out: Hoechst 33342 nuclear staining EC50, PBL
[9] = HeLa cells, read-out: Hoechst 33342 nuclear staining EC50, HeLa
[10] = Jily cells, read-out: Hoechst 33342 nuclear staining EC50, Jily
[11] = Jurkat cells, read-out: Hoechst 33342 nuclear staining EC50, Jurkat
[12] = HT1080 cells, read-out: MTS proliferation assay IC50, HT1080
[13] = HeLa cells, read-out: MTS proliferation assay IC50, HeLa
[14] = Jily cells, read-out: MTS proliferation assay IC50, Jily
[15] = Jurkat cells, read-out: MTS proliferation assay IC50, Jurkat
[16] = HeLa cells, read-out: Mitochondrial membrane potential (read-out 48 h) HeLa
[17] = Jily cells, read-out: Mitochondrial membrane potential (read-out 48 h) Jily
[18] = Jurkat cells, read-out: Mitochondrial membrane potential (read-out 48 h) Jurkat
[19] = MCF7 cells, read-out: Mitochondrial membrane potential (read-out 48 h) MCF7

| Structure (SMILES) | EC50 [1, 7] [nM] | EC50 [1, 8] [nM] | EC50 (tumor cells [2]; [9]) [nM] | EC50 (tumor cells [2]; [10]) [nM] | EC50 (tumor cells [2]; [11]) [nM] | IC50 [3] [nM] | IC50 (tumor cells [4]; [12]) [nM] | IC50 (tumor cells [4]; [13]) [nM] | IC50 (tumor cells [4]; [14]) [nM] | IC50 (tumor cells [4]; [15]) [nM] | EC50 [5] [nM] | EC50 (tumor cells [6]; [16]) [nM] | EC50 (tumor cells [6]; [17]) [nM] | EC50 (tumor cells [6]; [18]) [nM] | EC50 (tumor cells [6]; [19]) [nM] | other results |
| --- | --- | --- | --- | --- | --- | --- | --- | --- | --- | --- | --- | --- | --- | --- | --- | --- |
| COc1ccc2oc(C(=O)c3cccnc3N3CCCCC3)cc2c1 [Example 92] | > 1000 | > 1000 | > 1000 | > 1000 | > 1000 | > 1000 | > 1000 | > 1000 | > 1000 | > 1000 | > 1000 | 10 to 100 | 10 to 100 | 10 to 100 | 10 to 100 | – |
| Nc1c(C(=O)c2cc(F)ccc2N2CCOCC2)oc2ccc(Cl)cc12 [Example 93] | 10 to 100 | > 1000 | 10 to 100 | 10 to 100 | 10 to 100 | 10 to 100 | 10 to 100 | 10 to 100 | 10 to 100 | 100 to 1000 | > 1000 | 10 to 100 | 100 to 1000 | 10 to 100 | 100 to 1000 | – |
| COc1ccc2oc(C(=O)c3cc(F)ccc3N3CCN(C)CC3)cc2c1 [Example 94] | > 1000 | > 1000 | > 1000 | > 1000 | 100 to 1000 | 100 to 1000 | 100 to 1000 | 100 to 1000 | 100 to 1000 | 100 to 1000 | > 1000 | > 1000 | 100 to 1000 | 100 to 1000 | > 1000 | – |
| COc1ccc2oc(C(=O)c3cc(F)ccc3N3CCCCC3C)cc2c1 (stereo not drawn) [Example 97] | > 1000 | > 1000 | > 1000 | > 1000 | > 1000 | 100 to 1000 | 100 to 1000 | > 1000 | 100 to 1000 | 100 to 1000 | > 1000 | > 1000 | > 1000 | > 1000 | > 1000 | – |
| COc1ccc2oc(C(=O)c3cc(F)ccc3N3CCCC(C)C3)cc2c1 (stereo not drawn) [Example 99] | > 1000 | > 1000 | 100 to 1000 | 100 to 1000 | 100 to 1000 | 10 to 100 | 100 to 1000 | 100 to 1000 | 10 to 100 | 10 to 100 | > 1000 | 100 to 1000 | 100 to 1000 | 100 to 1000 | 100 to 1000 | – |
| Nc1c(C(=O)c2cc(F)ccc2N2CCCCC2)oc2ccc(Cl)cc12 [Example 100] | 100 to 1000 | > 1000 | 100 to 1000 | 100 to 1000 | 10 to 100 | 10 to 100 | 10 to 100 | 100 to 1000 | 10 to 100 | 10 to 100 | > 1000 | 100 to 1000 | 10 to 100 | 10 to 100 | 100 to 1000 | – |
| Nc1c(C(=O)c2cc(F)ccc2N2CCCCC2)oc2ccc(Cl)cc12 [Example 101] | 100 to 1000 | > 1000 | 100 to 1000 | 100 to 1000 | 10 to 100 | 100 to 1000 | 10 to 100 | 100 to 1000 | 100 to 1000 | 10 to 100 | > 1000 | 100 to 1000 | 10 to 100 | 10 to 100 | 100 to 1000 | – |
| CN1CCN(c2ccc(F)cc2C(=O)c2oc3ccc(Cl)cc3c2N)CC1 [Example 102] | > 1000 | > 1000 | > 1000 | > 1000 | > 1000 | > 1000 | > 1000 | > 1000 | > 1000 | 100 to 1000 | > 1000 | > 1000 | > 1000 | > 1000 | > 1000 | – |
| Nc1c(C(=O)c2cc(F)ccc2N2CC=CCC2)oc2ccc(Cl)cc12 [Example 103] | 10 to 100 | > 1000 | 10 to 100 | 10 to 100 | 10 to 100 | 10 to 100 | 10 to 100 | 10 to 100 | 10 to 100 | 10 to 100 | > 1000 | 10 to 100 | 10 to 100 | 10 to 100 | 10 to 100 | – |
| CC1CCCN(c2ccc(F)cc2C(=O)c2oc3ccc(Cl)cc3c2N)C1 (stereo not drawn) [Example 104] | 100 to 1000 | > 1000 | 100 to 1000 | 100 to 1000 | 100 to 1000 | 100 to 1000 | 100 to 1000 | 100 to 1000 | 100 to 1000 | 100 to 1000 | > 1000 | 100 to 1000 | 100 to 1000 | 100 to 1000 | 100 to 1000 | – |
| COc1ccc2oc(C(=O)c3cc(F)ccc3-n3ccnc3)cc2c1 [Example 105] | > 1000 | > 1000 | > 1000 | > 1000 | > 1000 | > 1000 | > 1000 | > 1000 | > 1000 | > 1000 | > 1000 | > 1000 | > 1000 | > 1000 | > 1000 | – |
| O=C(c1cc2cc(OCc3ccccc3)ccc2o1)c1cc(F)ccc1N1CCOCC1 [Example 106] | > 1000 | > 1000 | > 1000 | > 1000 | > 1000 | > 1000 | > 1000 | > 1000 | > 1000 | > 1000 | > 1000 | > 1000 | > 1000 | > 1000 | > 1000 | – |
| O=C(c1cc2cc(O)ccc2o1)c1cc(F)ccc1N1CCOCC1 [Example 107] | 100 to 1000 | > 1000 | 100 to 1000 | 100 to 1000 | 100 to 1000 | 10 to 100 | 10 to 100 | 10 to 100 | 10 to 100 | 10 to 100 | > 1000 | 100 to 1000 | 10 to 100 | 10 to 100 | 100 to 1000 | – |
| CCOc1ccc2oc(C(=O)c3cc(F)ccc3N3CCOCC3)cc2c1 [Example 108] | 10 to 100 | > 1000 | 10 to 100 | 10 to 100 | 10 to 100 | 10 to 100 | 10 to 100 | 10 to 100 | 10 to 100 | 10 to 100 | > 1000 | 100 to 1000 | 10 to 100 | 10 to 100 | 100 to 1000 | – |
| O=C(c1cc2cc(OCc3ccccc3)ccc2o1)c1cc(F)ccc1N1CC=CCC1 [Example 109] | > 1000 | > 1000 | > 1000 | > 1000 | > 1000 | > 1000 | > 1000 | > 1000 | > 1000 | > 1000 | > 1000 | > 1000 | > 1000 | > 1000 | > 1000 | – |
| O=C(c1cc2cc(OCc3ccccc3)ccc2o1)c1cc(F)ccc1N1CCCCC1 [Example 110] | > 1000 | > 1000 | > 1000 | > 1000 | > 1000 | > 1000 | > 1000 | > 1000 | > 1000 | > 1000 | > 1000 | > 1000 | > 1000 | > 1000 | > 1000 | – |
| CCOc1ccc(F)cc1C(=O)c1sc2ncccc2c1N [Example 113, 3-Amino-2-(2′-ethoxy-5-fluorobenzoyl)-thieno[2,3-b]pyridine] | – | > 1000 | – | 100 to 1000 | – | – | – | – | 100 to 1000 | – | > 1000 | – | 100 to 1000 | – | – | EC50 ([1]; Homo sapiens, MRC5 cells, read-out: Hoechst 33342 nuclear staining EC50, MRC5): > 1000 nM; EC50 (tumor cells [2]; Homo sapiens, HeLa cells, read-out: Hoechst 33342 nuclear staining EC50, HeLa): 100 to 1000 nM; EC50 (tumor cells [2]; Homo sapiens, Jurkat cells, read-out: Hoechst 33342 nuclear staining EC50, Jurkat): 100 to 1000 nM; IC50 ([3]; Homo sapiens): > 1000 nM; IC50 (tumor cells [4]; Homo sapiens, HT-1080, HT1080 cells, read-out: MTS proliferation assay IC50, HT1080): > 1000 nM; IC50 (tumor cells [4]; Homo sapiens, HeLa cells, read-out: MTS proliferation assay IC50, HeLa): 100 to 1000 nM; IC50 (tumor cells [4]; Homo sapiens, Jurkat cells, read-out: MTS proliferation assay IC50, Jurkat): 100 to 1000 nM; EC50 (tumor cells [6]; Homo sapiens, HeLa cells, read-out: Mitochondrial membrane potential (read-out 48 h) HeLa): > 1000 nM; EC50 (tumor cells [6]; Homo sapiens, Jurkat cells, read-out: Mitochondrial membrane potential (read-out 48 h) Jurkat): 100 to 1000 nM; EC50 (tumor cells [6]; Homo sapiens, MCF7 cells, read-out: Mitochondrial membrane potential (read-out 48 h) MCF7): > 1000 nM |
